From patent US20260042764A1, “COMPOSITIONS AND METHODS FOR INHIBITION OF KRAS” (TheRas, Inc., priority 2022, published 2026)

Legend:
GP2d cells (KRAS G12D) = test: Cell-based pERK HTRF assay in GP2d cell (Biological Example 2); details: GP2d (KRAS G12D) cells
How it was run: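 60 min compound, 0.25% DMSO, 9-pt half-log curve from 1 μM or 100 nM; DMEM/10% FBS.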

[1] = target: T1, Avi-KRAS G12D (2-169) GTP/RAF1 RBD-3xFLAG (51-131) (Homo sapiens, UniProt P01116, G12D); test: Raf1-KRAS G12D-GTP disruption HTRF assay (Biological Example 3); format: binding; details: KRAS G12D, GTP-loaded
T1 construct: Avi-KRAS G12D (2-169)
T1 sequence (P01116 2-169 isoform P01116-2 G12D): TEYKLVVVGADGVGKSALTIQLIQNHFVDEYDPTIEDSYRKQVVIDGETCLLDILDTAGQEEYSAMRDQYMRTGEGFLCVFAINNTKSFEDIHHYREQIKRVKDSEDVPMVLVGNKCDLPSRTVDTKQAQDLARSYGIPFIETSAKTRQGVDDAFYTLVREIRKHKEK
How it was run: (§1)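 50 nM Avi-KRAS (2-169) GTP/RAF1 RBD complex; 75 nM RBD-Avi; pH 7.5 Tris buffer, 10% DMSO; cpd 30 μM top, 3x, 10 pts; 1 h RT, 700 rpm; HTRF, % of DMSO.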

[2] = target: T2, Avi-KRAS G12C (2-169) GTP/RAF1 RBD-3xFLAG (51-131) (Homo sapiens, UniProt P01116, G12C); test: Raf1-KRAS G12C-GTP disruption HTRF assay (Biological Example 3); format: binding; details: KRAS G12C, GTP-loaded
T2 construct: Avi-KRAS G12C (2-169)
T2 sequence (P01116 2-169 isoform P01116-2 G12C): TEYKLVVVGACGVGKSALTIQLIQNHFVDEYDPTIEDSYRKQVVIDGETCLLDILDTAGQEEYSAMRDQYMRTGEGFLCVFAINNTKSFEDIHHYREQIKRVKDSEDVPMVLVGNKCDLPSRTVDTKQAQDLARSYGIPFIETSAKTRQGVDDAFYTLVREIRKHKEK
How it was run: as §1

[3] = target: T3, Avi-KRAS G12R (1-169) GppNHp/RAF1 RBD-3xFLAG (52-151) (Homo sapiens, UniProt P01116, G12R); test: Raf1-KRAS G12R-GppNHP disruption HTRF assay (Biological Example 1); format: binding; details: KRAS G12R-GppNHp/RAF1 RBD HTRF
T3 construct: Avi-KRAS G12R (1-169)
T3 sequence (P01116 1-169 isoform P01116-2 G12R): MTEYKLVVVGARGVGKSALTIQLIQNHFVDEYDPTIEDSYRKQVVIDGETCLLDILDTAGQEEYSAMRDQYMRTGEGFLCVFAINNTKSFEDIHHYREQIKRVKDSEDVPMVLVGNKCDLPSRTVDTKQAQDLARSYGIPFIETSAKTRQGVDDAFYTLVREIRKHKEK
How it was run: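 HTRF PPI disruption; buffer 50 mM Tris pH 7.5, 100 mM NaCl, 5 mM MgCl2, 0.1% BSA, 0.01% Tween, 10% DMSO. Protein mix 1 h RT shaking, reagent mix 1 h RT shaking. Data as % activity vs DMSO (100%).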

CCN(c1nc(OC[C@@]23CCCN2C[C@H](F)C3)nc2c(F)c(-c3ccc(F)c4sc(N)c(C#N)c34)c(C(F)(F)F)cc12)[C@H]1CCN(C(=O)N(C)C)C1 (atropisomer, axis not shown) [Compound 540, (3S)-3-[[7-(2-amino-3-cyano-7-fluoro-benzothiophen-4-yl)-8-fluoro-2-[[(2R,8S)-2-fluoro-1,2,3,5,6,7-hexahydropyrrolizin-8-yl]methoxy]-6-(trifluoromethyl)quinazolin-4-yl]-ethyl-amino]-N,N-dimethyl-pyrrolidine-1-carboxamide]
IC50 (GP2d cells (KRAS G12D); GP2d): < 100 nM | IC50 [1]: ≤ 100 nM | IC50 [2]: ≤ 100 nM

CCN(c1nc(OC[C@@]23CCCN2C[C@H](F)C3)nc2c(F)c(-c3ccc(F)c4sc(N)c(C#N)c34)c(C(F)(F)F)cc12)[C@@H]1CC(=O)N(C)C1 [Compound 520]
IC50 [3]: 100 to 1000 nM | IC50 (GP2d cells (KRAS G12D); GP2d): < 100 nM | IC50 (GP2d cells (KRAS G12D); GP2d, pERK HTRF): < 100 nM | IC50 [1]: 100 to 1000 nM | IC50 [2]: 100 to 1000 nM

CCN(c1nc(OC[C@@]23CCCN2C[C@H](F)C3)nc2c(F)c(-c3ccc(F)c4sc(N)c(C#N)c34)c(C(F)(F)F)cc12)[C@H]1C[C@H]2CN(C)C(=O)N2C1 (atropisomer, axis not shown; (aS)) [Compound 543, 2-amino-4-((S)-4-(ethyl((6S,7aS)-2-methyl-3-oxohexahydro-1H-pyrrolo[1,2-c]imidazol-6-yl)amino)-8-fluoro-2-(((2R,7aS)-2-fluorotetrahydro-1H-pyrrolizin-7a(5H)-yl)methoxy)-6-(trifluoromethyl)quinazolin-7-yl)-7-fluorobenzo[b]thiophene-3-carbonitrile]
IC50 [3]: < 100 nM | IC50 (GP2d cells (KRAS G12D); GP2d): < 100 nM | IC50 (GP2d cells (KRAS G12D); GP2d, pERK HTRF): < 100 nM | IC50 [1]: ≤ 100 nM | IC50 [2]: ≤ 100 nM

CN(C)C(=O)[C@@H]1CC[C@@H](N(C)c2nc(OC[C@@]34CCCN3C[C@H](F)C4)nc3c(F)c(-c4ccc(F)c5sc(N)c(C#N)c45)c(C(F)(F)F)cc23)C1 (atropisomer, axis not shown) [Compound 512]
IC50 [3]: 100 to 1000 nM | IC50 (GP2d cells (KRAS G12D); GP2d): < 100 nM | IC50 (GP2d cells (KRAS G12D); GP2d, pERK HTRF): < 100 nM | IC50 [1]: 100 to 1000 nM | IC50 [2]: 100 to 1000 nM

CCN(c1nc(OC[C@@]23CCCN2C[C@H](F)C3)nc2c(F)c(-c3ccc(F)c4sc(N)c(C#N)c34)c(C(F)(F)F)cc12)[C@@H]1CC(=O)N(C2CC2)C1 [Compound 537]
IC50 [3]: < 100 nM | IC50 (GP2d cells (KRAS G12D); GP2d): < 100 nM | IC50 (GP2d cells (KRAS G12D); GP2d, pERK HTRF): < 100 nM | IC50 [1]: ≤ 100 nM | IC50 [2]: 100 to 1000 nM

CCN(c1nc(OC[C@@]23CCCN2C[C@H](F)C3)nc2c(F)c(-c3ccc(F)c4sc(N)c(C#N)c34)c(C(F)(F)F)cc12)[C@H]1C[C@H](C)N(C(=O)COC)C1 (atropisomer, axis not shown) [Compound 538]
IC50 [3]: < 100 nM | IC50 (GP2d cells (KRAS G12D); GP2d): < 100 nM | IC50 (GP2d cells (KRAS G12D); GP2d, pERK HTRF): < 100 nM | IC50 [1]: ≤ 100 nM | IC50 [2]: ≤ 100 nM

CN(C)C(=O)c1nn2c(c1Cl)CN(c1nc(OC[C@@]34CCCN3C[C@H](F)C4)nc3c(F)c(-c4ccc(F)c5sc(N)c(C#N)c45)c(C(F)(F)F)cc13)CC2 [Compound 517]
IC50 [3]: < 100 nM | IC50 (GP2d cells (KRAS G12D); GP2d): < 100 nM | IC50 (GP2d cells (KRAS G12D); GP2d, pERK HTRF): < 100 nM | IC50 [1]: 100 to 1000 nM | IC50 [2]: 100 to 1000 nM

CCN(c1nc(OC[C@@]23CCCN2C[C@H](F)C3)nc2c(F)c(-c3ccc(F)c4sc(N)c(C#N)c34)c(C(F)(F)F)cc12)[C@@H]1C[C@H]2CCC(=O)N2C1 (atropisomer, axis not shown) [Compound 532]
IC50 [3]: 100 to 1000 nM | IC50 (GP2d cells (KRAS G12D); GP2d): < 100 nM | IC50 (GP2d cells (KRAS G12D); GP2d, pERK HTRF): < 100 nM | IC50 [1]: 100 to 1000 nM | IC50 [2]: 100 to 1000 nM

CCN(c1nc(OC[C@@]23CCCN2C[C@H](F)C3)nc2c(F)c(-c3ccc(F)c4sc(N)c(C#N)c34)c(C(F)(F)F)cc12)[C@H]1C[C@H]2COC(=O)N2C1 (atropisomer, axis not shown; (aS)) [Compound 518, 2-amino-4-((S)-4-(ethyl((6S,7aS)-3-oxotetrahydro-1H,3H-pyrrolo[1,2-c]oxazol-6-yl)amino)-8-fluoro-2-(((2R,7aS)-2-fluorotetrahydro-1H-pyrrolizin-7a(5H)-yl)methoxy)-6-(trifluoromethyl)quinazolin-7-yl)-7-fluorobenzo[b]thiophene-3-carbonitrile]
IC50 [3]: < 100 nM | IC50 (GP2d cells (KRAS G12D); GP2d): < 100 nM | IC50 (GP2d cells (KRAS G12D); GP2d, pERK HTRF): < 100 nM | IC50 [1]: ≤ 100 nM | IC50 [2]: ≤ 100 nM

CCOC(=O)N1CC[C@H](N(CC)c2nc(OC[C@@]34CCCN3C[C@H](F)C4)nc3c(F)c(-c4ccc(F)c5sc(N)c(C#N)c45)c(C(F)(F)F)cc23)C1 [Compound 467]
IC50 [3]: < 100 nM | IC50 (GP2d cells (KRAS G12D); GP2d, pERK HTRF): < 100 nM

CCC(=O)N1CC[C@@H](N(CC)c2nc(OC[C@@]34CCCN3C[C@H](F)C4)nc3c(F)c(-c4ccc(F)c5sc(N)c(C#N)c45)c(C(F)(F)F)cc23)[C@H]1C (atropisomer, axis not shown) [Compound 523]
IC50 [3]: < 100 nM | IC50 (GP2d cells (KRAS G12D); pERK HTRF): < 100 nM | IC50 (GP2d cells (KRAS G12D); GP2d): < 100 nM | IC50 [1]: ≤ 100 nM | IC50 [2]: ≤ 100 nM

N#Cc1c(N)sc2c(F)ccc(-c3c(C(F)(F)F)cc4c(N5CCn6nc(N7CCOCC7)cc6C5)nc(OC[C@@]56CCCN5C[C@H](F)C6)nc4c3F)c12 [Compound 485]
IC50 [3]: 1000 to 10000 nM | IC50 (GP2d cells (KRAS G12D); GP2d, pERK HTRF): < 100 nM

CCN(c1nc(OC[C@@]23CCCN2C[C@H](F)C3)nc2c(F)c(-c3ccc(F)c4sc(N)c(C#N)c34)c(C(F)(F)F)cc12)[C@@H]1C[C@@H]2CCC(=O)N2C1 [Compound 511]
IC50 [3]: 1000 to 10000 nM | IC50 (GP2d cells (KRAS G12D); GP2d): < 100 nM | IC50 (GP2d cells (KRAS G12D); GP2d, pERK HTRF): < 100 nM | IC50 [1]: 1000 to 10000 nM | IC50 [2]: 1000 to 10000 nM

CCN(c1nc(OC[C@@]23CCCN2C[C@H](F)C3)nc2c(F)c(-c3ccc(F)c4sc(N)c(C#N)c34)c(C(F)(F)F)cc12)[C@H]1CCN(C(=O)C(C)C)C1 (atropisomer, axis not shown) [Compound 468]
IC50 [3]: > 10000 nM | IC50 (GP2d cells (KRAS G12D); pERK HTRF): 100 to 1000 nM

CCN(c1nc(OC[C@@]23CCCN2C[C@H](F)C3)nc2c(F)c(-c3ccc(F)c4sc(N)c(C#N)c34)c(C(F)(F)F)cc12)[C@H]1CCN(C(=O)C(C)C)C1 (single isomer, unassigned) [Compound 469]
IC50 [3]: < 100 nM | IC50 (GP2d cells (KRAS G12D); GP2d): < 100 nM | IC50 (GP2d cells (KRAS G12D); GP2d, pERK HTRF): < 100 nM | IC50 [1]: ≤ 100 nM | IC50 [2]: ≤ 100 nM

CCN(c1nc(OC[C@@]23CCCN2C[C@H](F)C3)nc2c(F)c(-c3ccc(F)c4sc(N)c(C#N)c34)c(C(F)(F)F)cc12)C1C[C@@H](C)N(C(=O)C2CC2)C1 (stereo partly drawn) [Compound 516]
IC50 [3]: < 100 nM | IC50 (GP2d cells (KRAS G12D); GP2d): < 100 nM | IC50 (GP2d cells (KRAS G12D); GP2d, pERK HTRF): < 100 nM | IC50 [1]: 100 to 1000 nM | IC50 [2]: 100 to 1000 nM

CCN(c1nc(OC[C@@]23CCCN2C[C@H](F)C3)nc2c(F)c(-c3ccc(F)c4sc(N)c(C#N)c34)c(C(F)(F)F)cc12)[C@H]1C[C@H](C)N(C(=O)C2CC2)C1 [Compound 470]
IC50 [3]: < 100 nM | IC50 (GP2d cells (KRAS G12D); GP2d, pERK HTRF): < 100 nM

CCN(c1nc(OC[C@@]23CCCN2C[C@H](F)C3)nc2c(F)c(-c3ccc(F)c4sc(N)c(C#N)c34)c(C(F)(F)F)cc12)[C@H]1CCS(=O)(=O)C1 (atropisomer, axis not shown) [Compound 492]
IC50 [3]: < 100 nM | IC50 (GP2d cells (KRAS G12D); pERK HTRF): < 100 nM

Cc1cc2n(n1)CCN(c1nc(OCC34CCCN3CC(F)C4)nc3c(F)c(-c4ccc(F)c5sc(N)c(C#N)c45)c(C(F)(F)F)cc13)C2 (stereo not drawn) [Compound 484]
IC50 [3]: 1000 to 10000 nM | IC50 (GP2d cells (KRAS G12D); GP2d, pERK HTRF): < 100 nM
